Source: patent US8263555B2 (Alcon Research, Ltd., priority 2007, dated 2012)
Values joined by “and” are separate entries in the source; they are usually repeats but may differ in a detail not shown here. Equal entries are not always repeated. One block for each compound: values may come before it.

Legend:
h-CM cells = assay: Production and release of endogenous prostaglandins from h-CM cells; assay type: cell-based, human; settings: BK 1 μM, relative to baseline and to fluprostenol
Procedure: A functional assay to discover BK agonists may involve the measurement of prostaglandin E2 (PGE2) production (Wiernas et al. Brit. J. Pharmacol. 123: 1127-1137, 1998), for instance, in cells isolated from human or animal ocular or non-ocular tissues, or cells expressing recombinant (preferably human) BK receptors. Cells expressing BK receptors are seeded in 48-wells culture plates and allowed to reach confluence. After this time the cells are rinsed twice with 0.5 mL of phosphate buffered saline and incubated with the test agent made up in 0.5 mL Dulbeco's modified Eagle's medium (DMEM)/F-12 for 1 h at 37° C. […]
After this incubation, all tubes are placed in an ice-bath and 1 ml cold precipitating reagent supplied in the kit is added to the tubes, the content mixed and incubated for 25 min at 4° C. […] The supernatants of all tubes are decanted as specified in the kit instructions and the RIA samples analyzed on a gamma-counter. The levels of PGE2 generated by the test agent are then quantified in comparison with the PGE2-standard curve. Dose-response data for the test agent are constructed and the potency and intrinsic activity determined as described above for other assays. […]

[1] = target: T1, B2-receptors in h-NPE cells (Homo sapiens, UniProt P30411); assay: BK- and BK-related peptide-induced [Ca^2+]i mobilization in h-NPE cells (agonist potency); assay type: cell-based; settings: BK = 100%, read-out: Intrinsic Activity (Emax, % max relative to BK)
T1 construct: we discovered and pharmacologically characterized B2-receptor proteins in h-TM, h-CM and h-NPE cells; endogenous in cells; host or cells: immortalized human non-pigmented ciliary epithelial (h-NPE) cells
T1 sequence (P30411 1-391): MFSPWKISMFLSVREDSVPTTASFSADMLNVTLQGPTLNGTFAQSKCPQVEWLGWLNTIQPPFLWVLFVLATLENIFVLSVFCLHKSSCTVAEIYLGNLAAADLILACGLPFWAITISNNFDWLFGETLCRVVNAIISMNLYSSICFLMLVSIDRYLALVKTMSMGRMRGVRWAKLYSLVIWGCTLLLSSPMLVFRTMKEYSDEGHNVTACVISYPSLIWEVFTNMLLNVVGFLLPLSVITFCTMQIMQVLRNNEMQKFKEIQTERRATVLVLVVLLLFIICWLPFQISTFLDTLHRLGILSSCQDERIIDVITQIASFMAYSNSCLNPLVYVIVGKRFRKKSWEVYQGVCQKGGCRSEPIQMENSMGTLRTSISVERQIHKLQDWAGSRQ

rabbit IOP = assay: Acute IOP response in rabbit eyes, intravitreal administration; assay type: in vivo; settings: 50 μg, relative to vehicle alone
Procedure: IOP is determined with an applanation pneumatonometer after light corneal anesthesia with 0.1% proparacaine. After baseline IOP measurements are taken, one eye of each of 7-10 (or both eyes of 5) rabbits per compound dose is topically dosed with compound. Either the contralateral eye is dosed with vehicle or a separate group of rabbits is used for vehicle control. Subsequent IOP measurements are taken at 0.5, 1, 2, 3, and 4 hours. In cases where the compound has poor ocular bioavailability, the compound may need to be administered intracamerally or intravitreally in order to observe the IOP-lowering efficacy.
Conversely, non-peptidic BK antagonists dosed topical ocularly in the ocular hypertensive monkey eyes were ineffective at modulating IOP (see below Example 4).

[2] = target: T2, BK B2-Receptor in h-CM cells (Homo sapiens, UniProt P30411); assay: Antagonism of BK-induced [Ca^2+]i mobilization in h-CM cells; assay type: cell-based; settings: read-out: Antagonist Potency (Ki; nM) vs BK (10 nM) in [Ca^2+]i Mobilization Assay, mean ± SEM or individual experiments
T2 construct: we discovered and pharmacologically characterized B2-receptor proteins in h-TM, h-CM and h-NPE cells; endogenous in cells; host or cells: primary human ciliary muscle (h-CM) cells
T2 sequence (P30411 1-391): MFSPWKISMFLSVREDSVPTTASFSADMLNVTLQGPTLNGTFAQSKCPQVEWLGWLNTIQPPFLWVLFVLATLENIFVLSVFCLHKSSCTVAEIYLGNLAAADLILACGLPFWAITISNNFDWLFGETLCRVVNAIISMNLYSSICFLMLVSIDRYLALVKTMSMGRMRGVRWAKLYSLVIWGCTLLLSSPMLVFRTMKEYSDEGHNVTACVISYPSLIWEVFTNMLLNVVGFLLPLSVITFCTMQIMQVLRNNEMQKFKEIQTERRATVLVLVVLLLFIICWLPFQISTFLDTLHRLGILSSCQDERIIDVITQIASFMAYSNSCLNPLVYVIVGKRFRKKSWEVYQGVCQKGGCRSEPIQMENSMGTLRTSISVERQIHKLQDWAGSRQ
Procedure: (§1) Opthalmol. Vis. Res. 47: 4001-4019, 2006; Sharif et al., J. Ocular Pharmacol. Ther. 22: 291-309, 2006).
(§2) On the day of the experiment, one vial of FLIPR Calcium Assay Kit dye is re-suspended in 50 mL of a FLIPR buffer consisting of Hank's Balanced Salt Solution (HBSS), 20 mM HEPES, and 2.5 mM probenecid, pH 7.4. Cells are loaded with the calcium-sensitive dye by addition of an equal volume (50 μL) to each well of the 96-well plate and incubated with dye for 1 h at 23° C. After this time, the test compound plate and cell plate are placed in the FLIPR instrument. At the beginning of an experimental run, a signal test is performed to check the basal fluorescence signal from the dye-loaded cells and the uniformity of the signal across the plate. The basal fluorescence is adjusted between 8000-12000 counts by modifying the exposure time, the camera F-stop, or the laser power. Instrument settings for a typical assay are the following: laser power 0.3-0.6 W, camera F-stop F/2, and exposure time 0.4 sec.
(§3) Fluorescence data are collected in real-time at 1.0 sec intervals for the first 60 secs and at 6.0 sec intervals for an additional 120 secs. […] The data are then analyzed using an automated, iterative, sigmoidal curve-fitting computer program to obtain the potency and intrinsic activities of the test agents as previously described (Sharif et al. J. Pharmacol. Exp. Ther. 286: 1094-1102, 1998; Sharif et al. Invest. Opthalmol. Vis. Sci. 39:2562-2571, 1998; Kelly et al. J. Pharmacol. Exp. Ther. 304: 238-245, 2003). The sources of materials and reagents for such assays can be found in the references cited above.

[3] = target: T3, BK B2-Receptor in h-NPE cells (Homo sapiens, UniProt P30411); assay: Antagonism of BK-induced [Ca^2+]i mobilization in immortalized h-NPE cells; assay type: cell-based; settings: read-out: Antagonist Potency (Ki; nM) vs BK (10 nM) in [Ca^2+]i Mobilization Assay, mean ± SEM or individual experiments
T3 construct: we discovered and pharmacologically characterized B2-receptor proteins in h-TM, h-CM and h-NPE cells; endogenous in cells; host or cells: immortalized human non-pigmented ciliary epithelial (h-NPE) cells
T3 sequence (P30411 1-391): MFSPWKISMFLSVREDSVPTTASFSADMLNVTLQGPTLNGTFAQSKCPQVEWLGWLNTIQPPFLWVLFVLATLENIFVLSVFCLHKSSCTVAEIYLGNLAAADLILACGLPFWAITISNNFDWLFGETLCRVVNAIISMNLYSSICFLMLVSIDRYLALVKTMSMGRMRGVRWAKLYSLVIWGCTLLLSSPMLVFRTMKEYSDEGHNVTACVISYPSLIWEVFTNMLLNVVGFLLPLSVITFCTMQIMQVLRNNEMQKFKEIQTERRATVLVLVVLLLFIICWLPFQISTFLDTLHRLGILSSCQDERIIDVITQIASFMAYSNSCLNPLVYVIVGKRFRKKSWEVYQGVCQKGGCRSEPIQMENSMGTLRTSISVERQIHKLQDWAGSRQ
Procedure: as §1, §2, §3

[4] = test system: Conscious Ocular Hypertensive Cynomolgus Monkey Eyes; assay: IOP response in conscious ocular hypertensive cynomolgus monkey eyes; assay type: in vivo; settings: for % Change in IOP (mmHg): topical ocular 300 μg, mean ± SEM
Procedure: Intraocular pressure (IOP) is determined with an Alcon Pneumatonometer (Alcon Laboratories, Inc., Fort Worth, Tex.) after light corneal anesthesia with 0.1% proparacaine. Right eyes are hypertensive as a result of laser trabeculoplasty. After a baseline IOP measurement, test compound is instilled in the right eyes only of 8-10 cynomolgus monkeys. Vehicle is instilled in the right eyes of 5-6 additional animals. […] IOP measurements are also taken on left eyes (normotensive and untreated) at each of these time points. The percent change in IOP from baseline is determined for each animal for every IOP measurement (Sharif et al. J. Ocular Pharmacol. Ther. 17: 305-317, 2001; May et al., J Pharmacol Exp Ther. 306: 301-309, 2003; Sharif et al. Invest. Opthalmol. Vis. Res. 47: 4001-4010, 2006). Group mean and standard error of the mean (SEM) are calculated for each time point. […] In cases where the compound of invention has poor ocular bioavailability, the compound may need to be administered intracamerally or intravitreally in order to observe the IOP-lowering efficacy.

[5] = target: T4, BK B2-Receptor in h-TM cells (Homo sapiens, UniProt P30411); assay: Antagonism of BK-induced [Ca^2+]i mobilization in h-TM cells; assay type: cell-based; settings: read-out: Antagonist Potency (Ki; nM) vs BK (10 nM) in [Ca^2+]i Mobilization Assay, mean ± SEM or individual experiments
T4 construct: we discovered and pharmacologically characterized B2-receptor proteins in h-TM, h-CM and h-NPE cells; endogenous in cells; host or cells: primary human trabecular meshwork (h-TM) cells
T4 sequence (P30411 1-391): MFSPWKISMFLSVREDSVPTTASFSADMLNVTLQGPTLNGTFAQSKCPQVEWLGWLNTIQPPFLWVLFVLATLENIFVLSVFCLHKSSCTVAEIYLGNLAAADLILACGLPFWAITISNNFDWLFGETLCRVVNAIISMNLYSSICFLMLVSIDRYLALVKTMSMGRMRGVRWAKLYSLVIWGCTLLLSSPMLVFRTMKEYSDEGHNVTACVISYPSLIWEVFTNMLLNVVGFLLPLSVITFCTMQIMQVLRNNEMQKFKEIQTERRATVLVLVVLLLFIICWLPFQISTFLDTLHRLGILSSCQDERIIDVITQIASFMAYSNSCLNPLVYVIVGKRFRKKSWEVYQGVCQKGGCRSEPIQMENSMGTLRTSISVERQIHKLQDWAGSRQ
Procedure: as §1
as §2, with “Instrument settings for a typical assay are the following: laser power 0.3-0.6 W, camera F-stop F/2, and exposure time 0.4 sec.” left out
as §3, with “The sources of materials and reagents for such assays can be found in the references cited above.” left out

Compound: O=C(O)CCC/C=C\C[C@@H]1[C@@H](/C=C/[C@@H](O)COc2cccc(C(F)(F)F)c2)[C@H](O)C[C@@H]1O (racemic) [fluprostenol]
production of prostaglandins (h-CM cells): stimulation of production and release of endogenous prostaglandins

Compound: N=C(N)NCCC[C@H](N)C(=O)N1CCC[C@H]1C(=O)N1CCC[C@H]1C(=O)NCC(=O)N[C@@H](Cc1ccccc1)C(=O)N[C@@H](CO)C(=O)N1CCC[C@H]1C(=O)N[C@@H](Cc1ccccc1)C(=O)O [Des-Arg^9-BK]
Emax [1]: 70 to 77%
effect on rabbit IOP (rabbit IOP): not

Ki [2]: 11 nM and 4 nM
Compound: CNC(=O)c1ccc(/C=C/C(=O)NCC(=O)N(C)c2ccc(Cl)c(COc3cccc4ccc(C)nc34)c2Cl)cc1 [FR-165649]
Ki [3]: 393 nM and 337 nM
% Change in IOP (mmHg) ([4]; Dose 1/1 hr post-dose): 1.0 ± 3.1%
% Change in IOP (mmHg) ([4]; Dose 1/3 hr post-dose): 0.7 ± 3.5%
% Change in IOP (mmHg) ([4]; Dose 1/6 hr post-dose): −6.2 ± 4.7%
% Change in IOP (mmHg) ([4]; Dose 1/24 hr post-dose): −4.0 ± 3.2%
modulation of IOP (in words) ([4]; topically administered 300 μg, conscious cynomolgus monkeys): failed to modulate IOP

Ki [5]: 69 nM and 19 nM
Ki [2]: 13 nM and 4 nM
Compound: Cc1nc2c(OCc3c(Cl)ccc(N(C)C(=O)CNC(=O)/C=C/c4ccc(C(=O)N(C)C)cc4)c3Cl)cccn2c1Br [FR-167344]
Ki [3]: 393 nM and 223 nM
